Here are results for two compounds from US20210154173A1, “PHARMACEUTICAL COMPOSITION INCLUDING CLAVULANIC ACID AND VALPROIC ACID, METHOD FOR TREATMENT OF EPILEPSY SEIZURE, AND METHOD FOR TREATMENT OF EPILEPSY-ASSOCIATED MOTOR SYMPTOM AND COGNITIVE IMPAIRMENT” (Arthur Wisdom Technology Consultants Ltd., priority 2019, published 2021).

Each structure is given as a SMILES string.

Type in all cases: in vivo, Wistar male rats
Test [1] deals with epilepsy rats (PTZ induced). In words: Passive avoidance test in shuttle box (trial E). The conditions noted are these: after retention session of 24 hours, p<0.05 compared to group A0. The procedure: (§1) Wistar male rats (8 week-old) purchased from BioLASCO Taiwan Co., Ltd were used. The rats were housed in an animal room with constant temperature of 21-24° C., where was kept on a 12-hours light and 12-hours dark cycle. The rats were housed and kept on free diet and water.
(§2) 3 days before the trials, motor functions of the rats were tested by the rotarod test. On the 1st, 3rd, 5th, 7th, 9th, 11th and 13th days, pentylenetetrazol (PTZ, 35 mg/kg) was IP injected to the rats to induce epilepsy rats of groups A1-A5. On the 21st day, after administration of PTZ, seizure intensity of the rats was measured.
(§3) Referring to TABLE 1, on the 7th, 8th, 9th, 10th, 11th, 12th and 13th days, clavulanic acid and/or valproic acid was IP injected to the epilepsy rats of groups A2-A5. Saline (1 mL/kg/day) was IP injected to the normal rats of group A0, as well as the epilepsy rats of group A1.
On the 14th day, the motor function of the rats of groups A0-A5 was tested by rotarod test. […] The number of BrdU-positive cells in hippocampal dentate gyrus was calculated. […]
After the retention session for 24 hours, the rat R under the test was placed in the light chamber C1, and the guillotine door D was opened, as shown in FIG. 8b. The latency to entrance into the dark chamber C2 was recorded. […]

Test [2] has as its system epilepsy rats (PTZ induced). In words: Object recognition test (trial D). The conditions noted are these: 17th day. The protocol:
as §1, §2, §3
On the 14th day, the motor function of the rats of groups A0-A5 was tested by rotarod test. On the 15th, 16th and 17th days, the cognitive impairment on object recognition ability of the rats of groups A0-A5 was tested by object recognition test. On the 18th, 19th and 20th days, the cognitive impairment on memory of the rats of groups A0-A5 was tested by passive avoidance test. […] The number of BrdU-positive cells in hippocampal dentate gyrus was calculated. […]
On the 17th day, during the test session, the rat R under the test was placed in the open box, shown as FIG. 6a, and the time spent exploring the object O1 (TO1) and the total time spent exploring the objects O1, O2 & O3 (TO1+O2+O3) were recorded, respectively. The percentage of the exploration time spent on the object O1 was calculated as (TO1/TO1+O2+O3)*100%. […] The time spent exploring the novel object O4 (TO4) and the total time spent exploring the objects O2 & O3 and the novel object O4 (TO2+O3+O4) were respectively recorded, and the percentage of the exploration time spent on the novel object O4 was calculated as […].

The subject of test [3] is epilepsy rats (PTZ induced). The experiment in a line: Rotarod test of motor function (trial C). The conditions noted are these: 14th day, 25 rpm for 3 minutes. The procedure: Wistar male rats (8 week-old) purchased from BioLASCO Taiwan Co., Ltd were used. The rats were housed in an animal room with constant temperature of 21-24° C., where was kept on a 12-hours light and 12-hours dark cycle. The rats were housed and kept on free diet and water. 3 days before the trials, motor functions of the rats were tested by the rotarod test. On the 1st, 3rd, 5th, 7th, 9th, 11th and 13th days, pentylenetetrazol (PTZ, 35 mg/kg) was IP injected to the rats to induce epilepsy rats of groups A1-A5. On the 21st day, after administration of PTZ, seizure intensity of the rats was measured. Referring to TABLE 1, on the 7th, 8th, 9th, 10th, 11th, 12th and 13th days, clavulanic acid and/or valproic acid was IP injected to the epilepsy rats of groups A2-A5. Saline (1 mL/kg/day) was IP injected to the normal rats of group A0, as well as the epilepsy rats of group A1. On the 14th day, the motor function of the rats of groups A0-A5 was tested by rotarod test. On the 15th, 16th and 17th days, the cognitive impairment on object recognition ability of the rats of groups A0-A5 was tested by object recognition test. On the 18th, 19th and 20th days, the cognitive impairment on memory of the rats of groups A0-A5 was tested by passive avoidance test. Moreover, on the 22nd day, BrdU (5′-bromo-2′-deoxyuridine) was IP injected to the rats of groups A0-A5 to label the proliferating cells. On the 23rd day, the rats of groups A0-A5 were sacrificed and the coronal brain sections were collected. The sections with hippocampal dentate gyrus were used for BrdU staining. The number of BrdU-positive cells in hippocampal dentate gyrus was calculated. Next, motor function of the rats of groups A0-A5 was tested by rotarod test. Specifically, in the training session, the normal rat that had not yet been induced as epilepsy rat by PTZ was used as the rat R under the test. […] 3 trials were performed with a cutoff of 5 minutes. On the 14th day, the rats of groups A0-A5 were used as the rats R under the test. […]

Test [4] relates to epilepsy rats (PTZ induced). In words: BrdU staining of hippocampal dentate gyrus (trial F). To be noted: 23rd day. The protocol:
as §1, §2, §3
On the 14th day, the motor function of the rats of groups A0-A5 was tested by rotarod test. On the 15th, 16th and 17th days, the cognitive impairment on object recognition ability of the rats of groups A0-A5 was tested by object recognition test. On the 18th, 19th and 20th days, the cognitive impairment on memory of the rats of groups A0-A5 was tested by passive avoidance test. Moreover, on the 22nd day, BrdU (5′-bromo-2′-deoxyuridine) was IP injected to the rats of groups A0-A5 to label the proliferating cells. On the 23rd day, the rats of groups A0-A5 were sacrificed and the coronal brain sections were collected. The sections with hippocampal dentate gyrus were used for BrdU staining. The number of BrdU-positive cells in hippocampal dentate gyrus was calculated.
On the 22nd day, BrdU was IP injected to the rats to label the proliferating cells. On the 23rd day, the rats of groups A0-A5 were sacrificed and the coronal sections of the brain were collected. The sections with hippocampal dentate gyrus were used for BrdU staining.
For orientation: Incorporation of labelled thymidine or its analogues reports DNA synthesis.

Test [5] deals with epilepsy rats (PTZ induced). In words: Seizure intensity by Racine score in PTZ-induced epilepsy rats (trial B). The conditions noted are these: for seizure intensity (Racine score): 9th, 11th and 13th days. The protocol: Wistar male rats (8 week-old) purchased from BioLASCO Taiwan Co., Ltd were used. The rats were housed in an animal room with constant temperature of 21-24° C., where was kept on a 12-hours light and 12-hours dark cycle. The rats were housed and kept on free diet and water. 3 days before the trials, motor functions of the rats were tested by the rotarod test. On the 1st, 3rd, 5th, 7th, 9th, 11th and 13th days, pentylenetetrazol (PTZ, 35 mg/kg) was IP injected to the rats to induce epilepsy rats of groups A1-A5. On the 21st day, after administration of PTZ, seizure intensity of the rats was measured. Referring to TABLE 1, on the 7th, 8th, 9th, 10th, 11th, 12th and 13th days, clavulanic acid and/or valproic acid was IP injected to the epilepsy rats of groups A2-A5. Saline (1 mL/kg/day) was IP injected to the normal rats of group A0, as well as the epilepsy rats of group A1. On the 1st, 3rd, 5th, 7th, 9th, 11th, 13th and 21st days, the seizure intensity of the rats of groups A0-A5 was measured by Racine score. The seizure intensity was scored according to Racine's scale as follows: 0=normal, nonepileptic activity, 1=mouth and facial movements, hyperactivity, grooming, sniffing, scratching, wet dog shakes, 2=head nodding, staring, tremor, 3=forelimb clonus, forelimb extension, 4=rearing, salivating, tonic clonic activity and 5=falling, status epilepticus.

Where [6] appears, read: group A4: valproic acid 50 mg/kg/day IP.

For `O=C(O)[C@H]1/C(=C/CO)O[C@@H]2CC(=O)N21` [clavulanic acid], in test [1] (group A2: clavulanic acid 1 mg/kg/day IP), the “latency to entrance into the dark chamber C2” value is recorded as “also decreases”. Also, the “percentage of time exploring novel object O4 versus object O1” value is listed as “can recognize the novel object O4” in test [2] (group A2: clavulanic acid 1 mg/kg/day IP, p<0.01) and “can recognize the novel object O4” in test [2] (group A3: clavulanic acid 10 mg/kg/day IP, p<0.05). In addition, the “riding time on rotarod” value in test [3] (group A2: clavulanic acid 1 mg/kg/day IP, no difference between group A0) was “significantly increase the riding time”; in test [3] (group A3: clavulanic acid 10 mg/kg/day IP, p<0.05 compared to group A1) it was “significantly increase the riding time”. The “number of BrdU-positive cells in hippocampal dentate gyrus” value was “can recover the number of BrdU-positive cells to normal” in test [4] (group A2: clavulanic acid 1 mg/kg/day IP, no difference compared to group A0) and “can recover the number of BrdU-positive cells to normal” in test [4] (group A3: clavulanic acid 10 mg/kg/day IP, no difference compared to group A0). In addition, the figures for the “seizure intensity (Racine score)” value in test [5] (group A2: clavulanic acid 1 mg/kg/day IP days 7-13) and in test [5] (group A3: clavulanic acid 10 mg/kg/day IP days 7-13) were 3-4 and “decreases”, respectively. Further, the “seizure intensity (Racine score) after drug holiday” value in test [5] (group A3: clavulanic acid 10 mg/kg/day IP days 7-13, not treated days 14-20, 21st day, compared to group A1 (saline)) is on record as “still significantly lower”.
Regarding `CCCC(CCC)C(=O)O` [valproic acid], the “latency to entrance into the dark chamber C2” value in test [1] (setting [6]) is recorded as “cannot improve the cognitive impairment on memory”. The “percentage of time exploring novel object O4 versus object O1” value in test [2] (setting [6]) is “cannot improve the cognitive decline on recognition ability”. Also, the “riding time on rotarod” value in test [3] (group A4: valproic acid 50 mg/kg/day IP, p<0.001 compared to group A0) is “cannot improve the motor coordination and balance problems”. Besides, the “number of BrdU-positive cells in hippocampal dentate gyrus” value in test [4] (group A4: valproic acid 50 mg/kg/day IP, p<0.05 compared to A0) is reported as “cannot improve the defect on neurogenesis”. Besides, the “seizure intensity (Racine score)” value in test [5] (group A4: valproic acid 50 mg/kg/day IP days 7-13) is “did not decrease”.
